Measured values taken from US6541450B1, “Parathyroid hormone analogues for the treatment of osteoporosis” (National Research Council of Canada, priority 1994, dated 2003).
Like-named read-outs stand apart in the source and are kept apart here. Where a SMILES comes first, the peptide text is derived from it. Bridges are numbered along the chain shown (N, C = ends). Where no end group is shown, it is not given here.

What was measured:
[1] = test system: anesthetized female Sprague-Dawley rats; test: Hypotensive effect, tail artery pressure in anaesthetized rats
[2] = target: T1, adenylyl cyclase, ROS 17/2 cells (Rattus norvegicus, UniProt P25961); conditions: previously reported, cited from earlier work
T1 sequence (P25961 27-591): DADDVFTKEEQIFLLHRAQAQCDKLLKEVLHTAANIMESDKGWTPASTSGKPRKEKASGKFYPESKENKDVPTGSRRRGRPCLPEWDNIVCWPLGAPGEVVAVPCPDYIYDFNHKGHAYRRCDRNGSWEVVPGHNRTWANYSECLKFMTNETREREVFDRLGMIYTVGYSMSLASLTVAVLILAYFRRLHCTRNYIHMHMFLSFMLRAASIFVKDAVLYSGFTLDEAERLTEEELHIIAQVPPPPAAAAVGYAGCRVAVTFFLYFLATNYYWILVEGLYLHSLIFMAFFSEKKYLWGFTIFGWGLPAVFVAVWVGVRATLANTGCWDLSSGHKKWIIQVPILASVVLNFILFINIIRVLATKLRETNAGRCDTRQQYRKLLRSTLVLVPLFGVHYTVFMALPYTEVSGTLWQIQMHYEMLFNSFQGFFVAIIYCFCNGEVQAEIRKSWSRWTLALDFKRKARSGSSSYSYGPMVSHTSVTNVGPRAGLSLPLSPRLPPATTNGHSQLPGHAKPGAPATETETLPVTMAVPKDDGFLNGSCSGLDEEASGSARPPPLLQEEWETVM

[3] = target: T1, adenylyl cyclase, ROS 17/2 cells; test: Adenylyl cyclase stimulation, [3H]-cyclic AMP production in ROS 17/2 cells; format: cell-based
[4] = test system: ovariectomized (OVX) Sprague-Dawley rats; test: Anabolic activity in ovariectomized rat model, injections from 2nd to 8th week after OVX; format: in vivo
From the text: A full description of the protocol is given in Rixon et al, J. Bone & Mineral Research 9, 1179-1189, 1994 and Whitfield et al Calcif. Tissue Int. 58, 81-87, 1996 incorporated herein by reference. Normal, Sham-OVX (ovariectomized), and OVX Sprague-Dawley rats (3 months-old; 255-260 g) were purchased from
Charles River Laboratories (St. Constant, QC). The rats were randomized into groups of 8 animals which received Purina rat chow and water ad libitum. There were no unscheduled deaths. The animals received 6, once-daily subcutaneous injections/week starting at the end of the second week after OVX, and ending at the end of the 8th week after OVX (i.e., 36 injections). Eight Sham-OVX and 8 OVX controls rats received 36 injections of vehicle (0.15 M NaCl containing 0.001N HCl) while 8 OVX rats received 0.6 nmole of fragment in vehicle/100 g of body weight). At the end of the 8th week after OVX, femurs were removed isolated, cleaned, and cut in half at mid-diaphysis and the proximal half was discarded. After removing the epiphysis, each half-femur was split lengthwise into two parts and the bone marrow was flushed out.
The bone-building potencies of the fragments were assessed from the changes in the mean thicknesses (area/perimeter) of the trabeculae in the distal half-femurs from the variously treated animals. To measure mean trabecular thickness, the two demineralized half-femurs from each rat were dehydrated and embedded in paraffin. Longitudinal, 10-μm sections from the middle plane of each bone were cut and then strained with Sanderson's rapid bone stain (Surgipath Medical Industries, Inc., Winnipeg, MB, Canada). The mean trabecular thickness was measured using a M4 imaging system and bone morphometric software from Imaging Research Inc., (St. Catherines, ON, Canada).
The results are further presented in the form of a bar graph in FIG. 7.

[5] = test system: ovariectomized (OVX) rats with severely depleted trabecular bone; test: Bone restoration in OVX rats with severely depleted trabecular bone, treatment from 9 weeks after OVX; format: in vivo, rat; conditions: 0.6 nmole/100 g once daily for 6 weeks, started 9 weeks after OVX
From the text: Doses were based upon dose-response data on hPTH(1-31)-NH2. […] By the end of the 9th week they had lost about 75% of their femoral trabecular bone mass. […] The fragment could also stimulate trabecular bone growth in much older rates. […] Accordingly, the dosage of 0.6 nmole/100 g of body weight was used in further tests.
In this second example of bone restoration, the abilities of the lactam fragments to restore severely depleted trabecular bone are compared. In this experiment, the 6-week program of once-daily injections of 0.6 nmole of peptide/100 g of body weight of young sexually mature rats was delayed until the end of the 9th week after OVX. At this time, 75% of their trabecular bone had been lost.

[6] = ROS cell line, read-out: EC50, AC-stimulating activity

CC[C@H](C)[C@H](NC(=O)[C@H](CCC(=O)O)NC(=O)[C@H](CO)NC(=O)[C@@H](NC(=O)[C@@H](N)CO)C(C)C)C(=O)N[C@@H](CCC(N)=O)C(=O)N[C@@H](CC(C)C)C(=O)N[C@@H](CCSC)C(=O)N[C@@H](Cc1c[nH]cn1)C(=O)N[C@@H](CC(N)=O)C(=O)N[C@@H](CC(C)C)C(=O)NCC(=O)N[C@@H](CCCCN)C(=O)N[C@@H](Cc1c[nH]cn1)C(=O)N[C@@H](CC(C)C)C(=O)N[C@@H](CC(N)=O)C(=O)N[C@@H](CO)C(=O)N[C@@H](CCSC)C(=O)N[C@@H](CCC(=O)O)C(=O)N[C@@H](CCCN=C(N)N)C(=O)N[C@H](C(=O)N[C@@H](CCC(=O)O)C(=O)N[C@@H](Cc1c[nH]c2ccccc12)C(=O)N[C@@H](CC(C)C)C(=O)N[C@@H](CCCN=C(N)N)C(=O)N[C@@H](CCCCN)C(=O)N[C@@H](CCCCN)C(=O)N[C@@H](CC(C)C)C(=O)N[C@@H](CCC(N)=O)C(=O)N[C@@H](CC(=O)O)C(N)=O)C(C)C [peptide 6, hPTH-(1-30)-NH2] (H-SVSEIQLMHNLGKHLNSMERVEWLRKKLQD-NH2)
rate of transport of subcutaneously injected peptide to the vascular system ([1]; subcutaneous, 0.8 nmol/100 g of body weight): significantly (p<0.05) reduced rates of transport
EC50 [2, 6]: 20 nM
EC50 [3, 6]: 20 nM

[Leu^27]-hPTH-(1-34)-NH2 (SVSEIQLMHNLGKHLNSMERVEWLRKLLQDVHNF-NH2; not fully specified (bridges); UniProt P01270 32-65, looked up, variant K27L) [reference compound]
AC activity in the ROS cell line, comparison in words [2]: more active in stimulating AC activity in the ROS cell line than hPTH-(1-34)-NH2

CC[C@H](C)[C@H](NC(=O)[C@H](CCC(=O)O)NC(=O)[C@H](CO)NC(=O)[C@@H](NC(=O)[C@@H](N)CO)C(C)C)C(=O)N[C@@H](CCC(N)=O)C(=O)N[C@@H](CC(C)C)C(=O)N[C@@H](CCSC)C(=O)N[C@@H](Cc1c[nH]cn1)C(=O)N[C@@H](CC(N)=O)C(=O)N[C@@H](CC(C)C)C(=O)NCC(=O)N[C@@H](CCCCN)C(=O)N[C@@H](Cc1c[nH]cn1)C(=O)N[C@@H](CC(C)C)C(=O)N[C@@H](CC(N)=O)C(=O)N[C@@H](CO)C(=O)N[C@@H](CCSC)C(=O)N[C@@H](CCC(=O)O)C(=O)N[C@@H](CCCNC(=N)N)C(=O)N[C@H](C(=O)N[C@@H](CCC(=O)O)C(=O)N[C@@H](Cc1c[nH]c2ccccc12)C(=O)N[C@@H](CC(C)C)C(=O)N[C@@H](CCCNC(=N)N)C(=O)N[C@@H](CCCCN)C(=O)N[C@@H](CCCCN)C(=O)N[C@@H](CC(C)C)C(=O)N[C@@H](CCC(N)=O)C(=O)N[C@@H](CC(=O)O)C(N)=O)C(C)C [peptide 6, hPTH-(1-30)-NH2] (H-SVSEIQLMHNLGKHLNSMERVEWLRKKLQD-NH2)
osteogenic activity, in words ([4]; subcutaneously injected): does not stimulate bone formation
time to reduction of tail artery pressure ([1]; injection into a femoral vein): about 1 minute
hypotensive action, in words ([1]; intravenous injection): potently hypotensive
hypotensive action, in words ([1]; subcutaneous injection): reduces blood pressure as much as hPTH-(1-31)-NH2
time for tail artery pressure to fall to its minimum ([1]; subcutaneous injection): 13.8 ± 2.3 min
total blood pressure drop versus other analogues ([1]; subcutaneously or intravenously, 0.8 nmol/100 g of body weight): not significantly different (p>0.05)
AC-stimulating activity, comparison in words [3]: stimulates AC almost as strongly as hPTH-(1-31)-NH and hPTH-(1-34)

CC[C@H](C)[C@H](NC(=O)[C@H](CCC(=O)O)NC(=O)[C@H](CO)NC(=O)[C@@H](NC(=O)[C@@H](N)CO)C(C)C)C(=O)N[C@@H](CCC(N)=O)C(=O)N[C@@H](CC(C)C)C(=O)N[C@@H](CCSC)C(=O)N[C@@H](Cc1c[nH]cn1)C(=O)N[C@@H](CC(N)=O)C(=O)N[C@@H](CC(C)C)C(=O)NCC(=O)N[C@@H](CCCCN)C(=O)N[C@@H](Cc1c[nH]cn1)C(=O)N[C@@H](CC(C)C)C(=O)N[C@@H](CC(N)=O)C(=O)N[C@@H](CO)C(=O)N[C@@H](CCSC)C(=O)N[C@@H](CCC(=O)O)C(=O)N[C@@H](CCCNC(=N)N)C(=O)N[C@H](C(=O)N[C@H]1CCC(=O)NCCCC[C@@H](C(=O)N[C@@H](CC(C)C)C(=O)N[C@@H](CC(C)C)C(=O)N[C@@H](CCC(N)=O)C(=O)N[C@@H](CC(=O)O)C(=O)N[C@H](C(N)=O)C(C)C)NC(=O)[C@H](CCCNC(=N)N)NC(=O)[C@H](CC(C)C)NC(=O)[C@H](Cc2c[nH]c3ccccc23)NC1=O)C(C)C [peptide 3, [Leu^27]cyclo(Glu^22-Lys^26)-hPTH-(1-31)-NH2] (H-SVSEIQLMHNLGKHLNSMERVEWLRKLLQDV-NH2; lactam 22-26; N-terminus assumed)
trabecular thickness (bone-building potency) ([4]; 0.6 nmole/100 g s.c., 36 injections, weeks 2-8 after OVX): especially superior activity compared to the linear analogue
hypotensive action, in words ([1]; subcutaneous injection): enhanced hypotensive effects
time for tail artery pressure to fall to its minimum ([1]; subcutaneous injection): much shorter time
trabecular bone volume ([5]; listed as (Leu^27)cyclo(Glu^22-Lys^26)-hPTH-(1-31)NH2): restored the trabecular bone volume to the values in normal control rats
trabecular bone volume ([5]; listed as (Leu^27)cyclo(Glu^22-Lys^26)hPTH-(1-31)-NH2): most effective of the fragments, restoring the bones to the values in normal control rats
increase in activity (AC) of cyclization plus Leu27 versus native sequence 1 ([3]; ROS cell line): ~6 fold
